Test results as given in US9855320B2, “Angiogenin for treatment of glaucoma” (CHUNG-ANG UNIVERSITY INDUSTRY-ACADEMIC COOPERATION …, priority 2011, dated 2018).

Columns and labels:
[1] = test system: nitric oxide (NO) concentration in aqueous humor; assay: NO concentration in aqueous humor after instillation (Griess assay); assay type: in vivo, rat; conditions: 1 hour after the initial instillation, 50 μg/ml, day-time and night-time test, rank among instillation groups
Procedure: Normal rat models were divided into 4 groups, each group consisting of 6 rats, that is, 12 eyes, and at 8 AM and 8 PM, each group was instilled with angiogenin 50 μg/ml, angiogenin fragment 50 μg/ml, and latanoprost 50 μg/ml, and 1, 3, and 6 hours after instillation, 15 to 20 μl of aqueous humor was extracted from two rats, that is, 4 eyes for each group. For the extraction of aqueous humor, first, rats were anesthetized, and then, corneal dissection was performed in a direction from at 9 o'clock outside each eye toward microkeratome, and then, a capillary tube was brought into contact through a dissection wound to absorb aqueous humor, which was then moved to an eppendroff tube and frozen-preserved at a temperature of −70 degrees. Thereafter, nitric oxide (NO) concentration in aqueous humor was measured by Griess assay (nitric oxide colorimetric assay kit, Biovision, USA). The aqueous humor was diluted 10 times and then mixed with the same amount of griess solution and reacted together for 10 minutes. The reaction product was moved onto a well plate and then, absorbance of nitrate, which is a NO formation reactant, was measured by using spectrophotometer at a wavelength of 540 nm and compared with a reference value to quantify the nitrate.

[2] = test system: Brn-3a marked retinal ganglion cell; assay: Brn-3a immunochemical staining of retina, chronic intraocular pressure increase model; assay type: in vivo, rat
Procedure: 0.05 cc/50 g of Tiletimine and Zolazepam-mixed medicament (Zoletil) and Xylazine (Rompum) were mixed at a ratio of 1:1 and then administered to 20 rats by intramuscular injection, thereby anesthetizing the rats. A limbus periphery was divided into four portions, each of which was then subjected to 2 mm dissection at an interval of 90 degrees, and then, two radial conjunctival excisions were performed on upper dissection periphery. […] After surgical isolation of vein, the vein was lifted up by using 3 mm-width spatula to be spaced apart from the peripheral tissue, and then, was subjected to electric ablation while being careful for the peripheral tissue not to have any thermal damage or any mechanical damage due to contact. Intraocular pressure was consecutively measured three or more times by using Tonopen (Solan, Fla., USA), and only reliable intraocular pressure values within 5 percentile were recorded. […] Before the operation, and 3 days, and 1, 2, 4, and 8 weeks after the operation, intraocular pressure was measured, and the rats were sacrificed to extract eyes therefrom, which were then subjected to tissue examination and immunechemical staining with respect to Brn-3a and CD11b, and a reverse transcription polymerase chain reaction was used to measure CD11b value in retinal tissue. […]

Substance: angiogenin: recombinant human angiogenin (R&D systems); 14.4 kDa single chain protein of 123 amino acids, a ribonuclease inducing angiogenesis
- NO concentration increase in aqueous humor [1]: greatest NO concentration increase
- density of Brn-3a marked retinal ganglion cell [2]: well maintained
